The subject of data set [1] is SARS-CoV-2. In words: Antiviral activity against SARS-CoV-2 B.1.617.1 (Kappa) infected in African green monkey VeroE6/TMPRSS2 cells at 1 MOI assessed as reduction in plaque formation measured after 48 hrs by measuring luciferase activity assay. Type of data set: functional, organism-based. The following applies: Severe acute respiratory syndrome coronavirus 2, B.1.617.1 (Kappa), VeroE6/TMPRSS2, 48 h.

A short description of data set [2]: Half life in ICR mouse measured at 150 mg/kg, po upto 24 hrs by LC-MS/MS analysis. The class given is ADME, organism-based. Conditions: in vivo.
Data set [3] can be described thus: Oral bioavailability in ICR mouse measured at 150 mg/kg upto 24 hrs by LC-MS/MS analysis. Type of data set: ADME, organism-based. Conditions: in vivo.
Data set [4] can be described thus: AUC in ICR mouse measured at 150 mg/kg, po upto 24 hrs by LC-MS/MS analysis. Type of data set: ADME, organism-based. Conditions: in vivo.
Data set [5] deals with SARS-CoV-2. Briefly: Antiviral activity against SARS-CoV-2 P.3 (Theta) infected in African green monkey VeroE6/TMPRSS2 cells at 1 MOI assessed as reduction in plaque formation measured after 48 hrs by measuring luciferase activity assay. The following applies: Severe acute respiratory syndrome coronavirus 2, P.3 (Theta), VeroE6/TMPRSS2, 48 h. Type of data set: functional, organism-based.

In data set [6] the test system is SARS-CoV-2. In words: Antiviral activity against SARS-CoV-2 B.1.1.7 (Alpha) infected in African green monkey VeroE6/TMPRSS2 cells at 1 MOI assessed as reduction in plaque formation measured after 48 hrs by measuring luciferase activity assay. Conditions: Severe acute respiratory syndrome coronavirus 2, B.1.1.7 (Alpha), VeroE6/TMPRSS2, 48 h. Type of data set: functional, organism-based.

For data set [7], the system named is SARS-CoV-2. In words: Antiviral activity against wild type SARS-CoV-2 infected in African green monkey VeroE6/TMPRSS2 cells at 1 MOI assessed as reduction in plaque formation measured after 48 hrs by measuring luciferase activity assay. Type of data set: functional, organism-based. The following applies: Severe acute respiratory syndrome coronavirus 2, VeroE6/TMPRSS2, 48 h.

Data set [8] addresses Replicase polyprotein 1ab (Severe acute respiratory syndrome coronavirus 2, UniProt P0DTD1). In words: Inhibition of SARS-CoV-2 Main protease assessed as hydrolysis of quenched fluorogenic substrate.
Data set [9] is described as follows: Half life in po dosed rat. The class given is ADME, organism-based. Conditions: in vivo.
Data set [10] in a line: AUClast in po dosed rat. Type of data set: ADME, organism-based. The following applies: in vivo.
A short description of data set [11]: Cmax in po dosed rat. The class given is ADME, organism-based. Conditions: in vivo.
A short description of data set [12]: Oral bioavailability in rat. The following applies: in vivo. Type of data set: ADME, organism-based.
Data set [13] can be described thus: Tmax in po dosed rat. Type of data set: ADME, organism-based. Conditions: in vivo.

The EC50 is the concentration giving half of the maximal effect. Broadly, the half-life is the time in which the quantity being followed falls by half. The bioavailability is dose-corrected exposure relative to a reference, in per cent. For orientation: AUC means the area under the concentration-time curve, a measure of exposure. Consider `[2H][C@](C(=O)N[C@@H](C)c1ccc(F)cc1)(c1cccnc1)N(C(=O)C(C)=O)c1ccc2c(c1)oc1ccccc12`, for which the 50% effective concentration (EC50) was found to be 34.4 nM with SARS-CoV-2 [1], 23.7 nM with SARS-CoV-2 [5], 20.3 nM in the data set on SARS-CoV-2 [6] and 11.4 nM in the data set on SARS-CoV-2 [7]. The compound further had a half-life in data set [2] of 1.42 h. Also, the bioavailability in data set [3] turned out to be 92.9%. The exposure (AUC) at 24 h in [4] worked out at 29200 ng·h/mL.

As usually defined, the IC50 is the midpoint of a concentration-inhibition curve. For `Cc1c(Br)cncc1NC[C@@H](N)CC1CCCCC1`, the concentration for half-maximal inhibition (IC50) in data set [8] was 7500 nM.

A word on the AUC(0-t): it is the area under the concentration-time curve up to a stated or last time point. Usually Cmax stands for the maximum level reached in the sampled fluid or tissue. For orientation: Tmax means the time at which the peak concentration occurs. For `Cn1cc2cc(/N=c3\[nH]c(=O)n(Cc4cnn[nH]4)c(=O)n3Cc3cc(F)c(F)cc3F)c(Cl)cc2n1`, the half-life in data set [9] is 2.51 h. This compound registered an area under the curve AUC(0-t) in [10] of 32600 ng·h/mL. In data set [11], this compound gave a Cmax of 6270 ng/mL. In data set [12], this compound had a bioavailability of 88.1%. For the same compound, the Tmax in data set [13] was determined as 1 h.

The record behind these values is ChEMBL document CHEMBL5512603, “Development of de-novo coronavirus 3-chymotrypsin-like protease (3CLpro) inhibitors since COVID-19 outbreak: A strategy to tackle challenges of persistent virus infection” (Eur J Med Chem, 2024).
